For this test, the system named is SK-N-MM (SKNMM-MYCN, doxycycline-inducible MYCN). The experiment in a line: area under dose-response curve (CellTiter-Glo viability normalised to plate controls) (AUC (arbitrary units)); higher = more loss of viability; extreme values may be limits of the assay. An outline of the steps:
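Compounds were pin-transferred as 10-point 1:3 dilution series (890-fold stock dilution) onto SK-N-MM cells with doxycycline-inducible MYCN, plated at 1250 cells/100 μL in 96-well plates and switched about 24 h after plating to medium with or without doxycycline two days before dosing. Dosing was repeated on day 4, and CellTiter-Glo luminescence was read 3 or 8 days after drugging. Area under the dose-response curve came from log2 signals normalised to the positive and negative controls on each plate.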
A general note: Cellular ATP, detected with luciferase, serves as a proxy for viable cell number.

The mark [1] stands for this setting: MYCN induction (doxycycline): +doxycycline (MYCN induced), time after drugging: 3 days.
Where [2] appears, read: MYCN induction (doxycycline): +doxycycline (MYCN induced), time after drugging: 8 days.
The mark [3] stands for this setting: MYCN induction (doxycycline): no doxycycline (MYCN not induced), time after drugging: 3 days.
Setting [4] is: MYCN induction (doxycycline): no doxycycline (MYCN not induced), time after drugging: 8 days.

For the compound `CC/C(=C(\c1ccccc1)c1ccc(OCCN(C)C)cc1)c1ccccc1` [TAMOXIFEN], the “area under dose-response curve” value under setting [1] came to 0, the “area under dose-response curve” value under setting [2] was 0, the “area under dose-response curve” value under setting [3] worked out at 0 and the “area under dose-response curve” value under setting [4] came to 0.
With `NC1(c2ccc(-c3nc4ccn5c(=O)[nH]nc5c4cc3-c3ccccc3)cc2)CCC1` [MK-2206], the “area under dose-response curve” value was determined as 0 under setting [2], 81.6 under setting [3] and 149 under setting [4].
Regarding `COc1cc(Nc2c(C#N)cnc3cc(OCCCN4CCN(C)CC4)c(OC)cc23)c(Cl)cc1Cl` [BOSUTINIB], the “area under dose-response curve” value reads like this: under setting [1], 0.583; under setting [2], 0.0371; under setting [3], 0.885; under setting [4], 0.202.
On to `COc1cc2/c(=N/c3ccc(Br)cc3F)nc[nH]c2cc1OCC1CCN(C)CC1` [VANDETANIB], for which the “area under dose-response curve” value is 3.18 under setting [1], 0 under setting [2], 2.99 under setting [3] and 125 under setting [4].
Turning to `Cc1c(N)nc([C@H](CC(N)=O)NC[C@H](N)C(N)=O)nc1C(=O)N[C@H](C(=O)N[C@H](C)[C@@H](O)[C@H](C)C(=O)N[C@H](C(=O)NCCc1nc(-c2nc(C(=O)NCCC[S+](C)C)cs2)cs1)[C@@H](C)O)[C@@H](OC1OC(CO)C(O)C(O)C1OC1OC(CO)C(O)C(OC(N)=O)C1O)c1cnc[nH]1` (some centres undefined) [BLEOMYCIN], the “area under dose-response curve” value is, setting by setting: under setting [1], 0; under setting [2], 0; under setting [3], 0; under setting [4], 0.
As to `Cn1cc(-c2cnn3c(N)c(Br)c([C@@H]4CCCNC4)nc23)cn1`, the “area under dose-response curve” value runs as follows: under setting [1], 67.2; under setting [2], 122; under setting [3], 31.4; under setting [4], 74.9.
For `CN1CCCN(C(=O)c2cccc(-c3ccc(/C=C4/C(=O)Nc5ccc(Cl)cc54)o3)c2)CC1` [CX-6258], the “area under dose-response curve” value under setting [1] is 165, the “area under dose-response curve” value under setting [2] was 206, the “area under dose-response curve” value under setting [3] was found to be 166 and the “area under dose-response curve” value under setting [4] turned out to be 202.
For `Cc1nc(Nc2ncc(C(=O)Nc3c(C)cccc3Cl)s2)cc(N2CCN(CCO)CC2)n1` [DASATINIB], the “area under dose-response curve” value amounted to 39.9 under setting [1], 121 under setting [2], 40 under setting [3] and 51.4 under setting [4].
In the case of `Nc1cc(C(F)(F)F)c(-c2cc(N3CCOCC3)nc(N3CCOCC3)n2)cn1` [BUPARLISIB], the “area under dose-response curve” value reads like this: under setting [1], 91.8; under setting [2], 150; under setting [3], 65.7; under setting [4], 86.9.
The corresponding values for `CC[C@]1(O)C[C@@H]2CN(CCc3c([nH]c4ccccc34)[C@@](C(=O)OC)(c3cc4c(cc3OC)N(C)[C@H]3[C@@](O)(C(=O)OC)[C@H](OC(C)=O)[C@]5(CC)C=CCN6CC[C@]43[C@@H]65)C2)C1` [VINBLASTINE] are 190, 284, 98.1 and 177.
The matching figures for `O=C(NC[C@H](O)CO)c1ccncc1Nc1ccc(I)cc1F` [PIMASERTIB]: 42.1, 125, 0 and 105.
For the compound `O=P1(NCCCl)OCCCN1CCCl` (centres undefined) [IFOSFAMIDE], the “area under dose-response curve” value by setting is: under setting [1], 0; under setting [2], 0; under setting [3], 0.
Take `Cn1cnc2c(F)c(Nc3ccc(Br)cc3F)c(C(=O)NOCCO)cc21` [BINIMETINIB]: the “area under dose-response curve” value under setting [1] was determined as 0, the “area under dose-response curve” value under setting [2] worked out at 0, the “area under dose-response curve” value under setting [3] was 17.9 and the “area under dose-response curve” value under setting [4] worked out at 56.9.
With `CC(=O)O[C@H]1CC[C@@]2(C)C(=CC[C@@H]3[C@@H]2CC[C@]2(C)C(c4cccnc4)=CC[C@@H]32)C1` [ABIRATERONE ACETATE], the “area under dose-response curve” value runs as follows: under setting [1], 8.14; under setting [2], 0; under setting [3], 6.74; under setting [4], 0.368.
The matching figures for `C=C1[C@@H](O)[C@@H]2O[C@]3(CC[C@H](/C=C/[C@@H](C)[C@@H]4CC(C)=C[C@@]5(O[C@H](C[C@@](C)(O)C(=O)O)CC[C@H]5O)O4)O3)CC[C@H]2O[C@@H]1[C@@H](O)C[C@H](C)[C@H]1O[C@@]2(CCCCO2)CC[C@H]1C` [OKADAIC ACID]: 204, 277, 167 and 266.
In the case of `Nc1ncn([C@@H]2O[C@H](CO)[C@@H](O)[C@H]2O)c(=O)n1` [5-AZACYTIDINE], the “area under dose-response curve” value was found to be 33.8 under setting [1], 58.3 under setting [2], 21.5 under setting [3] and 23.6 under setting [4].
On to `CCOC(=O)c1ccc(C#Cc2ccc3c(c2)C(C)(C)CCS3)nc1` [TAZAROTENE], for which the “area under dose-response curve” value runs as follows: under setting [1], 3.59; under setting [2], 9.49; under setting [4], 0.284.
For `CN(C)C/C=C/C(=O)Nc1cc2c(Nc3ccc(F)c(Cl)c3)ncnc2cc1O[C@H]1CCOC1` [AFATINIB], the “area under dose-response curve” value under setting [1] was 137, the “area under dose-response curve” value under setting [2] is 145, the “area under dose-response curve” value under setting [3] was found to be 140 and the “area under dose-response curve” value under setting [4] was determined as 121.
Take `O=P1(N(CCCl)CCCl)NCCCO1` (centres undefined) [CYCLOPHOSPHAMIDE]: the “area under dose-response curve” value under setting [1] came out at 0, the “area under dose-response curve” value under setting [2] is 0 and the “area under dose-response curve” value under setting [3] was 0.
Turning to `Clc1ccc(NN=C(c2ccccc2)c2ccccn2)nc1` [JIB-04], the “area under dose-response curve” value is, setting by setting: under setting [1], 33.4; under setting [2], 152; under setting [3], 17.8; under setting [4], 37.1.
`Nc1nc(F)nc2c1ncn2[C@@H]1O[C@H](COP(=O)(O)O)[C@@H](O)[C@@H]1O` [FLUDARABINE PHOSPHATE]: the “area under dose-response curve” value under setting [1] came out at 0, the “area under dose-response curve” value under setting [2] came to 0, the “area under dose-response curve” value under setting [3] amounted to 0 and the “area under dose-response curve” value under setting [4] was 57.1.
`Nc1nc2[nH]cnc2c(=S)[nH]1` [THIOGUANINE]: the “area under dose-response curve” value came out at 26.6 under setting [1], 54.3 under setting [2], 10.2 under setting [3] and 21.2 under setting [4].
With `OC[C@H]1O[C@@H](n2cnc3c2N=CNC[C@H]3O)C[C@@H]1O` [PENTOSTATIN], the “area under dose-response curve” value worked out at 0 under setting [1], 0 under setting [2] and 0 under setting [3].
As to `CC1CS(=O)(=O)CCN1/N=C/c1ccc([N+](=O)[O-])o1` (centres undefined) [NIFURTIMOX], the “area under dose-response curve” value by setting is: under setting [1], 3.58; under setting [2], 0; under setting [3], 0; under setting [4], 0.144.
With `CCC1(c2ccc(N)cc2)CCC(=O)NC1=O` (centres undefined) [AMINOGLUTETHIMIDE], the “area under dose-response curve” value is, setting by setting: under setting [1], 0; under setting [2], 0; under setting [3], 0.
